Laboratory results taken from patent US20230416692A1 (BOARD OF REGENTS, THE UNIVERSITY OF TEXAS SYSTEM, priority 2020, published 2023).
Several values for one entry are separate records, joined by “and”; a condition that tells them apart may be missing. Equal values may be shown once. Read-outs that look alike come from different tables or passages of the source.

Experiments:
[1] = test system: SARS-CoV-2-Nluc; test: microbe, parasite or virus in culture; type: cell-based
[2] = test system: A549-hACE2 cells
[3] = test system: plasma protein; conditions: data from literature; cited from earlier work
[4] = human exposures in the clinics, cited from earlier work; for Cmax: read-out: Exposure (μM): Cmax
[5] = Severe acute respiratory syndrome coronavirus 2, 48 h
[6] = Severe acute respiratory syndrome coronavirus 2

| Molecule | EC50 [1, 5] [µM] | CC50 ([2]; human) [µM] | also measured |
| --- | --- | --- | --- |
| Nc1ccn([C@@H]2O[C@@](CO)(CCl)[C@@H](O)[C@H]2F)c(=O)n1 [ALS-8112] | > 10 | > 50 |  |
| CC(C)CN(C[C@@H](O)[C@H](Cc1ccccc1)NC(=O)O[C@H]1CCOC1)S(=O)(=O)c1ccc(N)cc1 [Amprenavir] | > 10 | > 50 | activity against SARS-CoV-2-Nluc (in words) [1]: inactive; Plasma protein binding (%) [3]: 90% |
| COC(=O)N[C@H](C(=O)N[C@@H](Cc1ccccc1)[C@@H](O)CN(Cc1ccc(-c2ccccn2)cc1)NC(=O)[C@@H](NC(=O)OC)C(C)(C)C)C(C)(C)C [Atazanavir] | > 10 | > 50 | activity against SARS-CoV-2-Nluc (in words) [1]: inactive; Plasma protein binding (%) [3]: 86% |
| O=C1c2c(O)c(=O)ccn2N([C@@H]2c3ccccc3SCc3c2ccc(F)c3F)[C@@H]2COCCN12 [Baloxavir] | > 10 | 47 ± 1.3 |  |
| O=C(NCc1c(F)cc(F)cc1F)c1cn2c(c(O)c1=O)C(=O)N1[C@H]3CC[C@H](C3)O[C@@H]1C2 [Bictegravir] | > 10 | > 50 | Plasma protein binding (%) [3]: >99% |
| Nc1ccn(C[C@@H](CO)OCP(=O)(O)O)c(=O)n1 [Cidofovir] | > 10 | > 50 |  |
| CC(C)c1nc(CN(C)C(=O)N[C@@H](CCN2CCOCC2)C(=O)N[C@H](CC[C@H](Cc2ccccc2)NC(=O)OCc2cncs2)Cc2ccccc2)cs1 [Cobicistat] |  | 47.3 ± 2.5 | SI (selectivity index) [1]: 17.3; EC50 [1, 6]: 0.77 to 2.74 µM |
| CC(C)CN(C[C@@H](O)[C@H](Cc1ccccc1)NC(=O)O[C@H]1CO[C@H]2OCC[C@H]21)S(=O)(=O)c1ccc(N)cc1 [Darunavir] | > 10 | > 50 | activity against SARS-CoV-2-Nluc (in words) [1]: inactive |
| O=C1Nc2ccc(Cl)cc2[C@@](C#CC2CC2)(C(F)(F)F)O1 [Efavirenz] | > 9.6 | 37.6 ± 10.7 | SI (selectivity index) [1]: <3.9; Plasma protein binding (%) [3]: 99.5-99.8%; Exposure (μM): Cmin [4]: 5.6 µM; Cmax [4]: 12.9 µM |
| Nc1nc(=O)n([C@@H]2CS[C@H](CO)O2)cc1F [Emtricitabine] | > 10 | > 50 | activity against SARS-CoV-2-Nluc (in words) [1]: inactive; Plasma protein binding (%) [3]: 4%; Cmax [4]: 7.9 µM |
| C=C1[C@H](CO)[C@@H](O)C[C@@H]1n1cnc2c(=O)[nH]c(N)nc21 [Entecavir] | > 10 | > 50 |  |
| NC(=O)c1nc(F)c[nH]c1=O [Favipiravir] | > 10 | > 50 |  |
| CC(C)OC(=O)[C@H](C)N[P@+]([O-])(OC[C@H]1O[C@@](C#N)(c2ccc3c(N)ncnn23)[C@](C)(O)[C@@H]1OC(=O)C(C)C)Oc1ccccc1 [GS-6620] |  |  | EC50 ([1]; read-out: EC50): > 10 µM; CC50 [2]: > 50 µM |
| COc1ccc2c(O[C@@H]3C[C@H]4C(=O)N[C@]5(P(=O)(O)Cc6c(F)cccc6F)C[C@H]5CCCCCCC[C@H](NC(=O)OC5CCCC5)C(=O)N4C3)cc(-c3csc(NC(C)C)n3)nc2c1Cl [GS-9256] |  |  | EC50 ([1]; read-out: EC50): > 10 µM; CC50 [2]: 31.8 ± 10.9 µM |
| CC[C@@H]1C[C@]1(NC(=O)[C@@H]1C[C@@H](Oc2cc(-c3csc(NC(C)C)n3)nc3c(Cl)c(OCCN4CCOCC4)ccc23)CN1C(=O)[C@@H](NC(=O)O[C@@H]1C[C@@H]2C[C@@H]2C1)C(C)(C)C)C(=O)O [GS-9451] |  |  | EC50 ([1]; read-out: EC50): > 10 µM; CC50 [2]: > 50 µM |
| C=CC(=O)N1CCC[C@@H](n2nc(-c3ccc(Oc4ccccc4)cc3)c3c(N)ncnc32)C1 [Ibrutinib] | > 10 | > 50 |  |
| CC(C)(C)NC(=O)[C@@H]1CN(Cc2cccnc2)CCN1C[C@@H](O)C[C@@H](Cc1ccccc1)C(=O)N[C@H]1c2ccccc2C[C@H]1O [Indinavir] | > 10 | > 50 | activity against SARS-CoV-2-Nluc (in words) [1]: inactive |
| COC(=O)N[C@H](C(=O)N1CC2(CC2)C[C@H]1c1ncc(-c2ccc3c(c2)C(F)(F)c2cc(-c4ccc5nc([C@@H]6[C@H]7CC[C@H](C7)N6C(=O)[C@@H](NC(=O)OC)C(C)C)[nH]c5c4)ccc2-3)[nH]1)C(C)C [Ledapisvir] | > 10 | > 50 | activity against SARS-CoV-2-Nluc (in words) [1]: inactive |
| Cc1cccc(C)c1OCC(=O)N[C@@H](Cc1ccccc1)[C@@H](O)C[C@H](Cc1ccccc1)NC(=O)[C@H](C(C)C)N1CCCNC1=O [Lopinavir] | 8 to 9 | 31.5 ± 2.5 | EC50 [1]: 9 ± 0.42 µM; Plasma protein binding (%) [3]: 98-99% |

| Molecule | EC50 [1, 5] [µM] | CC50 ([2]; human) [µM] | also measured |
| --- | --- | --- | --- |
| C[C@@]1(O)[C@H](O)[C@@H](CO)O[C@H]1n1ccc2c(N)ncnc21 [MK-0608] |  |  | EC50 ([1]; read-out: EC50): > 10 µM; CC50 [2]: > 50 µM |
| Cc1c(O)cccc1C(=O)N[C@@H](CSc1ccccc1)[C@H](O)CN1C[C@H]2CCCC[C@H]2C[C@H]1C(=O)NC(C)(C)C [Nelfinavir] | 0.77 to 2.74 | 12 ± 1.3 | EC50 [1]: 0.77 µM; SI (selectivity index) [1]: 16 and 15.7; EC50 [1, 6]: 0.77 to 2.74 µM; Plasma protein binding (%) [3]: >98%; Exposure (μM): Cmin [4]: 2.6 µM; Cmax [4]: 8.3 µM |
| O=C(Nc1ccc([N+](=O)[O-])cc1Cl)c1cc(Cl)ccc1O [Niclosamide] | 0.715 | 1.28 ± 0.23 | SI (selectivity index) [1]: 1.8 |
| CC(C)[C@@]1(C(=O)N[C@H]2CC(=O)O[C@]2(O)CF)CC(c2nccc3ccccc23)=NO1 [Nivocasan] |  |  | activity against SARS-CoV-2-Nluc (in words) [1]: inactive; EC50 ([1]; read-out: EC50): > 10 µM; CC50 [2]: > 50 µM |
| CCC(CC)O[C@@H]1C=C(C(=O)O)C[C@H](N)[C@H]1NC(C)=O [Oseltamivir carboxylate] | > 10 | > 50 |  |
| CCOc1nc(N)nc2c1ncn2[C@@H]1O[C@@H]2COP(=O)(OC(C)C)O[C@H]2[C@@]1(C)F (stereo partly drawn) [PSI-352938] | > 10 | > 50 |  |
| Cc1cn2nc([C@@H]3CCCCN3C(=O)c3cc(Cl)ccc3NS(C)(=O)=O)cc2nc1N1CC[C@H](N)C1 [Presatovir] | 2.53 |  |  |
| CC1=CC[C@H](C(=O)N(c2cc(C#CC(C)(C)C)sc2C(=O)O)[C@H]2CC[C@](O)(CO[C@H]3CCOC3)CC2)CC1 [Radalbuvir] | > 10 | > 50 |  |
| NC(=O)c1ncn([C@@H]2O[C@H](CO)[C@@H](O)[C@H]2O)n1 [Ribavirin] | > 10 | > 50 |  |
| Cc1cc(/C=C/C#N)cc(C)c1Nc1ccnc(Nc2ccc(C#N)cc2)n1 [Rilpivirine] | 7.8 ± 1.04 | 14.6 ± 1.6 | Plasma protein binding (%) [3]: 99.7%; Exposure (μM): Cmin [4]: 0.30 µM; Cmax [4]: 0.83 µM |
| CC(C)c1nc(CN(C)C(=O)N[C@H](C(=O)N[C@@H](Cc2ccccc2)C[C@H](O)[C@H](Cc2ccccc2)NC(=O)OCc2cncs2)C(C)C)cs1 [Ritonavir] | > 10 |  | activity against SARS-CoV-2-Nluc (in words) [1]: inactive |
| Nc1ncnc2c1ncn2[C@@H]1O[C@H](OCP(=O)(O)O)C=C1F [Rovafovir] |  |  | EC50 ([1]; read-out: EC50): > 10 µM; Plasma protein binding (%) [3]: 58%; CC50 [2]: > 50 µM |
| CCOC(=O)/C=C/[C@H](C[C@@H]1CCNC1=O)NC(=O)[C@@H](CC(=O)[C@@H](NC(=O)c1cc(C)on1)C(C)C)Cc1ccc(F)cc1 [Rupintrivir] |  | > 50 | EC50 [1]: 1.87 ± 0.47 µM; SI (selectivity index) [1]: >26.7; EC50 [1, 6]: 0.77 to 2.74 µM |
| CC(C)(C)NC(=O)[C@@H]1C[C@@H]2CCCC[C@@H]2CN1C[C@@H](O)[C@H](Cc1ccccc1)NC(=O)[C@H](CC(N)=O)NC(=O)c1ccc2ccccc2n1 [Saquinavir] | 8 to 9 | 35.1 ± 11.7 | EC50 [1]: 8.95 ± 0.31 µM; SI (selectivity index) [1]: 3.9; Plasma protein binding (%) [3]: 98%; Exposure (μM): Cmin [4]: 0.65 µM; Cmax [4]: 3.7 µM |
| CC(C)OC(=O)[C@H](C)N[P@](=O)(OC[C@H]1O[C@@H](n2ccc(=O)[nH]c2=O)[C@](C)(F)[C@@H]1O)Oc1ccccc1 [Sofosbuvir] | > 10 | > 50 | activity against SARS-CoV-2-Nluc (in words) [1]: inactive |
| Fc1ccccc1-c1nc2ccn(Cc3ccc(-c4ccc(C(F)(F)F)cc4C(F)(F)F)nn3)cc-2n1 [Tegobuvir] | > 10 | 17.9 ± 3.1 |  |
| CC#CC(=O)N1CC[C@@H](n2c(=O)n(-c3ccc(Oc4ccccc4)cc3)c3c(N)ncnc32)C1 [Tirabrutinib] | > 10 | > 50 |  |
| COC[C@H]1C[C@@H](c2ncc(-c3ccc4c(c3)COc3cc5c(ccc6nc([C@@H]7CC[C@H](C)N7C(=O)[C@@H](NC(=O)OC)C(C)C)[nH]c65)cc3-4)[nH]2)N(C(=O)[C@H](NC(=O)OC)c2ccccc2)C1 [Velpatasvir] | > 10 | > 50 | activity against SARS-CoV-2-Nluc (in words) [1]: inactive |
| Voxilaprevir |  |  | EC50 ([1]; read-out: EC50): > 10 µM; CC50 [2]: 16 ± 1.2 µM |
